# PMC11489133, “Obicetrapib exhibits favorable physiochemical and pharmacokinetic properties compared to previous cholesteryl ester transfer protein inhibitors: An integrated summary of results from non‐human primate studies and clinical trials” (Pharmacology Research & Perspectives, 2024)
# Read-outs that look alike come from different tables or passages of the source.
# Columns and labels:
# [1] = absorption, metabolism and excretion study of a single 10 mg dose of 14C-obicetrapib (NCT02408055, TA‐8995‐07); format: in vivo, humans; conditions: male, human, in vivo
# Protocol: Figure 2 illustrates the obicetrapib (TA‐8995) M1 detected above the LLOQ (>1% radioactivity) in human plasma expressed as the percent radioactivity profiled. A study (NCT02408055) was conducted in healthy male participants (n = 6) to assess the absorption, metabolism, and excretion of a single dose of 10 mg of ^14C‐obicetrapib (TA‐8995‐07 CSR, NewAmsterdam Pharma). One of the objectives of the study was to determine the chemical structure of ^14C‐obicetrapib M1 that represent ≥10% of total radioactivity in plasma. The participants received 10 mL ^14C‐obicetrapib oral suspension, containing 10 mg and 100 μCi of ^14C‐obicetrapib in the fasted state. Clinical samples for analysis were selected based upon the levels of radioactivity present as determined by liquid scintillation counting and were stored at below −50°C (nominally −80°C) when not in use. Plasma samples from the participants were sequentially extracted with acetonitrile at five time points. The resulting extracts were concentrated by evaporation and reconstituted in mobile phase HPLC prior to analysis by radio‐HPLC. All samples were analyzed by liquid scintillation counting to evaluate the recovery of radioactivity. The profiles of the radiolabeled components in each sample of plasma were determined by HPLC analysis with off‐line radio‐detection. Selected samples from each matrix were then further analyzed by high‐resolution mass spectrometry to investigate the identity of M1. In plasma, the predominant metabolite component was unchanged obicetrapib (~79% of total drug‐related exposure), and the most abundant plasma M1 were M1 and P9 of which each accounted for ~4% of total exposure (Figure 2). No significant differences in the metabolite profiles were observed across the samples obtained from the six participants (TA‐8995‐07 CSR, NewAmsterdam Pharma).
# [2] = cited from earlier work
# [3] = cited from earlier work; remark: listed apart in the source
# [4] = set-up: method as in PMID 28847206; conditions: added to high‐intensity statin therapy, compared to placebo; cited from earlier work
# [5] = cited from earlier work; remark: listed apart in the source
# [6] = pH 7.4; cited from earlier work
Compound,percent radioactivity profiled in human plasma [1],PSA [5],cLogDpH7.4 [6],increase of C max by a high‐fat meal compared to fasting conditions [2],"accumulation in adipose tissue ([3]; human, in vivo)",other results
CCC1CC(N(Cc2cc(C(F)(F)F)cc(C(F)(F)F)c2)c2ncc(OCCCC(=O)O)cn2)c2cc(C(F)(F)F)ccc2N1 (stereo not drawn) [M1],approx. 4%,,,,,
O=C(O)COc1cnc(NCc2cc(C(F)(F)F)cc(C(F)(F)F)c2)nc1 [P9],approx. 4%,,,,,
"COc1cc(F)c(C(C)C)cc1-c1ccc(C(F)(F)F)cc1CN1C(=O)O[C@H](c2cc(C(F)(F)F)cc(C(F)(F)F)c2)[C@@H]1C [anacetrapib, Anacetrapib]",,39 Å^2,9.2,,,"increase in plasma levels, fed versus fasted state ([2]; in vivo): 2-8 fold; increase of AUC (0‐∞) by a high‐fat meal compared to a fasting state ([2]; in vivo): 6 fold; increase of C max by a high‐fat meal compared to a fasting state ([2]; in vivo): 8 fold; time detected in plasma after the last treatment dose ([3]; 76‐week DEFINE trial): up to 4 years; half‐life ([3]; human, in vivo): up to 80 h; accumulation in adipose tissue ([3]; subcutaneous adipose biopsy measurements, compared to plasma levels): accumulated in adipose tissue at much higher concentrations and for a prolonged period; reduced risk of major adverse coronary events [4]: 9%"
"CCC(CC)CC1(C(=O)Nc2ccccc2SC(=O)C(C)C)CCCCC1 [dalcetrapib, Dalcetrapib]",,46 Å^2,7.2,2.3 fold,,"increase of AUC(0–36) by a high‐fat meal compared to fasting conditions [2]: 1.6 fold; t 1/2 ([3]; once daily doses between 300 and 1200 mg, short‐term investigations): 30 h; accumulation in adipose tissue ([3]; other CETP inhibitors): no accumulation in adipose tissue"
"Cc1cc(C)c2c(c1)[C@@H](N(Cc1cc(C(F)(F)F)cc(C(F)(F)F)c1)c1nnn(C)n1)CCCN2C[C@H]1CC[C@H](C(=O)O)CC1 [evacetrapib, Evacetrapib]",,87 Å^2,7.9,1.5 fold,no accumulation in adipose tissue,increase of AUC(τ) by a high‐fat meal compared to fasting conditions [2]: 1.4 fold; t 1/2 ([3]; once daily doses between 10 and 600 mg for up to 15 days): 40 h
"CCOC(=O)N1c2ccc(C(F)(F)F)cc2[C@@H](N(Cc2cc(C(F)(F)F)cc(C(F)(F)F)c2)C(=O)OC)C[C@H]1CC [torcetrapib, Torcetrapib]",,59 Å^2,7.6,,no accumulation in adipose tissue,t 1/2 ([3]; single ascending dose study): 211 h
